One block for each compound: values may come before it.
Experiments:
Assay type in all cases: cell-based
[1] = molecular target: T1, human CaSR (Homo sapiens, UniProt P41180); assay: Evaluation of CaSR agonist activity (Ca2+ fluorescence, FLIPR, 293E cells transfected with hCaSR/pcDNA3.1)
T1 construct: expressed in transfected cells; host or cells: 293E cells (HEK293 cells expressing EBNA1, ATCC No. CRL-10852), transient transfection
T1 sequence (P41180 20-1078): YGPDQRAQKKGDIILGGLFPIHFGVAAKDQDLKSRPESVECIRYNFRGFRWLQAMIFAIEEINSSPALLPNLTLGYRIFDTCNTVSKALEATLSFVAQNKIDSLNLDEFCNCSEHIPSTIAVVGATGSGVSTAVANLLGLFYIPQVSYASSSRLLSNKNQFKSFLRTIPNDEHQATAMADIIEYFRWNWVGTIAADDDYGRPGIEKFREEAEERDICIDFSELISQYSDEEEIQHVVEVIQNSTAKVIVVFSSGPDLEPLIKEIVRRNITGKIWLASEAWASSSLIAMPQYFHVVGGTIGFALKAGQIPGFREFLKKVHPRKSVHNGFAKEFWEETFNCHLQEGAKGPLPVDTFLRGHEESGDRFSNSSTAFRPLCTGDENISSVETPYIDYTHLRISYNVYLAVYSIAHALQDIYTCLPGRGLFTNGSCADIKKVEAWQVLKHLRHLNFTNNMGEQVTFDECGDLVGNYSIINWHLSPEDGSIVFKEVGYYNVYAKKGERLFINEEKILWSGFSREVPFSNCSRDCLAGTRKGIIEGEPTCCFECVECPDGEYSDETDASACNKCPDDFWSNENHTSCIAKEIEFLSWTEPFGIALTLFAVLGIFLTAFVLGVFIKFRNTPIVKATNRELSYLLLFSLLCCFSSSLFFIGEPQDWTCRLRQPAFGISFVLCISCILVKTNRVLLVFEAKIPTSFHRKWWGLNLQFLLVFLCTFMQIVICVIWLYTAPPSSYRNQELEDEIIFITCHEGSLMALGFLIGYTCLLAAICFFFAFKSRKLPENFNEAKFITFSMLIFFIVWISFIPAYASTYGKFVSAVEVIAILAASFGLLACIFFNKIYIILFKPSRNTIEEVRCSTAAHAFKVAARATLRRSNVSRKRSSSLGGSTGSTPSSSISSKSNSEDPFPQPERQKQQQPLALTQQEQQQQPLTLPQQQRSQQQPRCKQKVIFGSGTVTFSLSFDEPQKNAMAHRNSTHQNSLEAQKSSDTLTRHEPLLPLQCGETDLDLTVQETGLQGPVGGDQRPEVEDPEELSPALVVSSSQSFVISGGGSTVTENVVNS
Protocol: The CaSR gene was prepared in accordance with the method described in Example 1 of WO 07/55393. Using the recombinant plasmid obtained, human CaSR expression plasmid hCaSR/pcDNA3.1 was prepared.
293E cells (HEK293 cells expressing EBNA1, ATCC No. CRL-10852) were cultured in DMEM (Dulbecco's Modified Eagle's Medium containing […], NACALAI TESQUE, INC.) containing 10% fetal calf serum, in the presence of 250 μg/ml of G418. The cells were spread on a Petri dish of 10 cm diameter in 1.8×10^6 cells/15 ml. After the cells were allowed to stand in a CO2 incubator (5% CO2, 37° C.) for 24 hours, human CaSR expression plasmid hCaSR/pcDNA3.1 was transfected with a transfection reagent Mirus TransIT 293 (Takara Bio Inc.). After the cells were allowed to stand in the CO2 incubator for 24 hours, the cells were collected by DMEM containing 10% fetal calf serum and plated on a poly-D-lysine coated 384 well plate (Falcon) in 15,000 cells/well. After the cells were allowed to stand in the CO2 incubator for 24 hours, the medium was removed. Then, 50 μL/well of Ca^2+ fluorescence indicator Calcium 4 Assay Kit (Molecular Devices) that was dissolved in an assay buffer (146 mM NaCl, 5 mM KCl, 1 mM MgSO4, 1 mg/ml glucose, 20 mM HEPES (pH 7.2) and 1.5 mM CaCl2) was added thereto, and allowed to stand at 37° C. for an hour and then at room temperature for 30 minutes to load the fluorescence indicator. The 384 well plate described above was transferred to FLIPR (Molecular Devices), and 12.5 μL/well of a compound that was dissolved in a 0.1% BSA containing-assay buffer was added thereto. Changes in fluorescence intensity were monitored for 3 minutes. Compound No. 20 was purchased from Bachem.

[2] = test system: Human cecum-derived cell line NCI-H716; assay: CCK secretion promoting activity in NCI-H716 cells; details: 37° C., 30 minutes
Protocol: Human cecum-derived cell line NCI-H716 (ATCC No. CCL-251) was cultured in DMEM/Ham's F-12 medium containing 10% FBS at 37° C. in the presence of 5% CO2. The NCI-H716 cells were plated on a poly-L-lysine-coated 24-well plate in 600,000 cells/well, followed by culturing for 2 days. Prior to the addition of a sample, the wells were washed with Hepes buffer (20 mM Hepes, 146 mM NaCl, 5 mM KCl, 1.5 mM CaCl2, 1 mM MgSO4, 5.5 mM D-glucose, 0.02% BSA, pH 7.4). Then, 300 μl of a solution of the sample in the same buffer, and incubation was performed at 37° C. for 30 minutes. Compounds No. 1 (20 mM) No. 7 (2 mM), No. 21 (2 mM), No. 22 (2 mM), No. 33 (0.1 mM) and No. 34 (1 mM) listed in TABLE 2 were used as the sample. For control, Hepes buffer was used. After the supernatant was collected, the cells were precipitated by centrifugation (5000×g, 1 minute). The supernatant was recovered and lyophilized in a Speed Vac Concentrator from Savant Instruments Inc., and 60 μl of water was added thereto for dissolution. The CCK concentration in the solution was determined using an Enzyme Immunoassay Kit (EK-069-04; PHOENIX PHARMACEUTICALS).
The amount of CCK secreted when the measurement value of control obtained using the buffer was made 1 was expressed as a relative value.

[3] = test system: Human cecum-derived cell line NCI-H716; assay: GLP-1 secretion promoting activity in NCI-H716 cells; details: 37° C., 60 minutes
Protocol: Human cecum-derived cell line NCI-H716 (ATCC No. CCL-251) was cultured in 10% FBS-containing DMEM/Ham's F-12 medium at 37° C. in the presence of 5% CO2. The NCI-H716 cells were plated on a poly-D-lysine-coated 96-well plate in 100,000 cells/well, followed by culturing for 2 days. Prior to the addition of a sample, the wells were washed with Hepes buffer (20 mM Hepes, 146 mM NaCl, 5 mM KCl, 1.5 mM CaCl2, 1 mM MgSO4, 5.5 mM D-glucose, 0.2% BSA, pH 7.4). Then, 50 μl of a solution of the sample in the same buffer, and incubation was performed at 37° C. for 60 minutes. Compounds No. 1 (20 mM), No. 7 (20 mM), No. 21 (20 mM), No. 22 (20 mM), No. 33 (7.5 mM) and No. 34 (7.5 mM) listed in TABLE 1 were used as the sample. As for control, Hepes buffer was used. After the supernatant was collected, the cells were precipitated by centrifugation (5000×g, 1 minute) and the supernatant was recovered. The GLP-1 concentration in the supernatant was measured as follows by the method for GLP-1 quantification using the GLP-1 receptor gene expression cells.
Human GLP-1 receptor gene (SEQ ID NO: 1) was incorporated into pcDNA3.1 in a conventional manner (López de Maturana R, Willshaw A, Kuntzsch A, Rudolph R, Donnelly D. J. Biol. Chem. 2003 Mar. 21; 278 (12): 10195-200.) to construct human GLP-1 receptor gene expression plasmid hGLP-1R/pcDNA3.1. Also, the chimeric gene (SEQ ID NO: 2) of human Gα15 gene and human gustducin gene was incorporated into pcDNA3.1 to construct G-protein expression plasmid Gα15-gust/pcDNA3.1. Using a transfection reagent FuGene 6 (Roche Japan, Inc.), hGLP-1R/pcDNA3.1 and Gα15-gust44/pcDNA3.1 were cotransfected to HEK293E cells (ATCC No. CRL-10852). After incubation in a CO2 incubator for 4 to 6 hours, the cells were suspended in 5% FBS-containing DMEM/Ham F12 and plated onto a poly-D-lysine-coated 96-well plate in 70,000 cells/well. After incubation for 24 hours in a CO2 incubator, changes in fluorescence intensity were begun to monitor immediately after the addition of a sample, using a FlexStation (Molecular Devices) according to the Ca^2+ fluorescence indicator FLIPR Calcium 4 Assay Kit protocol (Molecular Devices). Concentration dependence in response to changes in fluorescence intensity of human GLP-1 (7-36 amide; Peptide Institute, Inc.) was determined and used as a standard curve for quantitative determination of the sample. The expression plasmid used here may be constructed by the methods described in, e.g., Proc. Natl. Acad. Sci. USA. 1992 Sep. 15; 89 (18): 8641-5, FEBS Letters Volume 373, Issue 29, October 1995, Pages 182-186), The Journal of Neuroscience, Aug. 13, 2003, 23 (19): 7376-7380), etc.
The amount of GLP-1 secreted when the measurement value of control obtained using the buffer was made 1 was expressed as a relative value.

[4] = measured in a manner similar to Example III, Table 6
[5] = 293E cells expressing human CaSR, 1.5 mM CaCl2 assay buffer, Table 5

EC50 [1, 4]: 23 nM
SMILES: COC(=O)[C@@H](N)CCC(=O)Nc1cccc(S(=O)(=O)O)c1 [Compound 44, 3-[(4S)-4-amino-5-methoxy-5-oxopentanamido]benzene-1-sulfonic acid]

SMILES: N[C@@H](COC(=O)Nc1cc(Cl)cc(S(=O)(=O)O)c1O)C(=O)O [Compound 34]
Relative Value (amount of CCK secreted, buffer control = 1) ([2]; sample 1 mM): 1.77
Relative Value (amount of GLP-1 secreted, buffer control = 1) ([3]; sample 7.5 mM): 2.88

EC50 [1, 4]: 4 nM
SMILES: CCOC(=O)[C@@H](N)CCC(=O)Nc1cc(Cl)cc(S(=O)(=O)O)c1O [Compound 50, 3-[(4S)-4-amino-5-ethoxy-5-oxopentanamido]-5-chloro-2-hydroxybenzene-1-sulfonic acid]

EC50 [1, 4]: 110 nM
SMILES: COC(=O)[C@@H](N)COC(=O)Nc1cc(Cl)c(C)c(S(=O)(=O)O)c1 [Compound 49, 5-({[(2S)-2-amino-3-methoxy-3-oxopropoxy]carbonyl}amino)-3-chloro-2-methylbenzene-1-sulfonic acid]

SMILES: Cc1c(Cl)cc(NC(=O)CC[C@H](N)C(=O)O)cc1S(=O)(=O)O [Compound 21, N^5-(3-chloro-4-methyl-5-sulfophenyl)-L-glutamine]
Relative Value (amount of CCK secreted, buffer control = 1) ([2]; sample 2 mM): 4.54
Relative Value (amount of GLP-1 secreted, buffer control = 1) ([3]; sample 20 mM): 4.38

SMILES: Cc1c(Cl)cc(S(=O)(=O)O)cc1NC(=O)CC[C@H](N)C(=O)O [Compound 22, N^5-(3-chloro-2-methyl-5-sulfophenyl)-L-glutamine]
Relative Value (amount of CCK secreted, buffer control = 1) ([2]; sample 2 mM): 2.49
Relative Value (amount of GLP-1 secreted, buffer control = 1) ([3]; sample 20 mM): 2.22

SMILES: N[C@@H](CCC(=O)Nc1cccc(S(=O)(=O)O)c1)C(=O)O [Compound 1, N^5-(3-sulfophenyl)-L-glutamine]
Relative Value (amount of CCK secreted, buffer control = 1) ([2]; sample 20 mM): 2.16
Relative Value (amount of GLP-1 secreted, buffer control = 1) ([3]; sample 20 mM): 1.82

EC50 [1, 5]: 43 nM
SMILES: N[C@@H](COC(=O)N(O)c1cccc(S(=O)(=O)O)c1)C(=O)O [Compound 43, 0-{[hydroxy(3-sulfophenyl)amino]carbonyl}-L-serine]

SMILES: Cc1c(Cl)cc(NC(=O)OC[C@H](N)C(=O)O)cc1S(=O)(=O)O [Compound 33, O-{[(3-chloro-4-methyl-5-sulfophenyl)amino]carbonyl}-L-serine]
Relative Value (amount of CCK secreted, buffer control = 1) ([2]; sample 0.1 mM): 1.51
Relative Value (amount of GLP-1 secreted, buffer control = 1) ([3]; sample 7.5 mM): 1.87

SMILES: N[C@@H](CCC(=O)Nc1cc(Cl)cc(S(=O)(=O)O)c1O)C(=O)O [Compound 7, N^5-(5-chloro-2-hydroxy-3-sulfophenyl)-L-glutamine]
Relative Value (amount of CCK secreted, buffer control = 1) ([2]; sample 2 mM): 1.99
Relative Value (amount of GLP-1 secreted, buffer control = 1) ([3]; sample 20 mM): 2.90

EC50 [1, 5]: 31 nM
SMILES: N[C@@H](CCC(=O)N(O)c1cccc(S(=O)(=O)O)c1)C(=O)O [Compound 42, N^5-hydroxy-N^5-(3-sulfophenyl)-L-glutamine]
